System: Mtb-infected mouse lungs
Test: Genome-wide lung transcriptome (microarray, IPA network/GO analysis) of Mtb-infected mice
Format: in vivo

CCOc1cc([C@@H](CS(C)(=O)=O)N2Cc3cccc(NC(=O)C4CC4)c3C2=O)ccc1OC [CC-11050, N-[2-[(1S)-1-(3-ethoxy-4-methoxyphenyl)-2-(methylsulfonyl)ethyl]-2,3-dihydro-3-oxo-1H-isoindol-4-yl]-(9Cl) cyclopropanecarboxamide]
TIMP1 expression (Lung inflammation network): 0 | TLR2 expression (Lung inflammation network): 0 | TLR4 expression (Lung inflammation network): 0 | TNFAIP8L2 expression (Lung inflammation network): 0 | TNFRSF1B expression (Lung inflammation network): 0 | TNFRSF4 expression (Lung inflammation network): 0 | TNFRSF9 expression (Lung inflammation network): 0 | TNFRSF25 expression (Lung inflammation network): 0 | TNFSF15 expression (Lung inflammation network): 0 | TOP2A expression (Lung inflammation network): 0 | TRAF3IP2 expression (Lung inflammation network): 0 | TRAF6 expression (Lung inflammation network): 0 | TRPM2 expression (Lung inflammation network): 0 | mir-15 expression (Lung inflammation network): -1.286 | mir-19 expression (Lung inflammation network): 0 | mir-25 expression (Lung inflammation network): 0 | mir-27 expression (Lung inflammation network): 0 | mir-30 expression (Lung inflammation network): 0 | mir-155 expression (Lung inflammation network): 0 | mir-181 expression (Lung inflammation network): 0 | ABCC1 expression (TNF-a regulon network): 0 | ABCC3 expression (TNF-a regulon network): 0 | ABCD2 expression (TNF-a regulon network): 0 | ABCG2 expression (TNF-a regulon network): 0 | ABR expression (TNF-a regulon network): 0 | ABTB2 expression (TNF-a regulon network): 0 | ACADM expression (TNF-a regulon network): 0 | ACE expression (TNF-a regulon network): 1.167 | ACOX1 expression (TNF-a regulon network): 0 | ACSL1 expression (TNF-a regulon network): 0 | ADAM8 expression (TNF-a regulon network): 0 | ADAMTS5 expression (TNF-a regulon network): 0 | ADIPOQ expression (TNF-a regulon network): 0 | ADM expression (TNF-a regulon network): 0 | ADRB3 expression (TNF-a regulon network): 0 | AEBP1 expression (TNF-a regulon network): 0 | AGT expression (TNF-a regulon network): 0 | AK2 expression (TNF-a regulon network): 0 | ALAD expression (TNF-a regulon network): 0 | ALDH3A1 expression (TNF-a regulon network): 0 | ALOX5 expression (TNF-a regulon network): 0 | ANGPT2 expression (TNF-a regulon network): 0 | ANGPTL4 expression (TNF-a regulon network): 1.8298 | ANXA11 expression (TNF-a regulon network): 0 | AOC3 expression (TNF-a regulon network): 0 | APLN expression (TNF-a regulon network): 0 | APOBEC3B expression (TNF-a regulon network): 0 | APOC2 expression (TNF-a regulon network): 0 | AQP1 expression (TNF-a regulon network): 0 | AQP7 expression (TNF-a regulon network): 0 | ARF4 expression (TNF-a regulon network): 1.158 | ASGR1 expression (TNF-a regulon network): 0 | ASS1 expression (TNF-a regulon network): 0 | AVPR1A expression (TNF-a regulon network): 0 | Abcb1b expression (TNF-a regulon network): 0 | Aldh1a7 expression (TNF-a regulon network): 0 | B2M expression (TNF-a regulon network): 0 | B4GALT1 expression (TNF-a regulon network): 0 | BCKDHA expression (TNF-a regulon network): 0 | BCKDHB expression (TNF-a regulon network): 0 | BCL2A1 expression (TNF-a regulon network): 0 | BCL2L13 expression (TNF-a regulon network): 1.114 | BCL3 expression (TNF-a regulon network): 0 | BGN expression (TNF-a regulon network): 0 | BHLHE40 expression (TNF-a regulon network): 1.386 | BIRC2 expression (TNF-a regulon network): 0 | BIRC3 expression (TNF-a regulon network): 0 | BIRC5 expression (TNF-a regulon network): 0 | BMP4 expression (TNF-a regulon network): 0 | BMPR1A expression (TNF-a regulon network): 0 | BST2 expression (TNF-a regulon network): 0 | BTG1 expression (TNF-a regulon network): 0 | BUB1B expression (TNF-a regulon network): 0 | C3 expression (TNF-a regulon network): 0 | C10orf10 expression (TNF-a regulon network): 0 | C11orf82 expression (TNF-a regulon network): 0 | C21orf33 expression (TNF-a regulon network): 0 | CASP4 expression (TNF-a regulon network): 0 | CASP6 expression (TNF-a regulon network): 0 | CASP7 expression (TNF-a regulon network): 0 | CAT expression (TNF-a regulon network): 0 | CCL1 expression (TNF-a regulon network): 0 | CCL4 expression (TNF-a regulon network): 0 | CCL7 expression (TNF-a regulon network): 0 | CCL19 expression (TNF-a regulon network): 0 | CCL20 expression (TNF-a regulon network): 0 | CCR8 expression (TNF-a regulon network): 0 | CD3E expression (TNF-a regulon network): 0 | CD5 expression (TNF-a regulon network): 0 | CD28 expression (TNF-a regulon network): 0 | CD40 expression (TNF-a regulon network): 0 | CD69 expression (TNF-a regulon network): 0 | CD80 expression (TNF-a regulon network): 0 | CD82 expression (TNF-a regulon network): 0 | CD83 expression (TNF-a regulon network): 0 | CD247 expression (TNF-a regulon network): 0 | CD274 expression (TNF-a regulon network): 0 | CDC25C expression (TNF-a regulon network): 0 | CDH2 expression (TNF-a regulon network): 0 | CDH13 expression (TNF-a regulon network): 0 | CDKN2C expression (TNF-a regulon network): 0 | CDO1 expression (TNF-a regulon network): 1.459 | CEBPD expression (TNF-a regulon network): 0 | CELF1 expression (TNF-a regulon network): 0 | CFB expression (TNF-a regulon network): 0 | CFD expression (TNF-a regulon network): 0 | CFLAR expression (TNF-a regulon network): 0 | CH25H expression (TNF-a regulon network): 0 | CHST2 expression (TNF-a regulon network): 0 | CHST4 expression (TNF-a regulon network): 0 | CIB2 expression (TNF-a regulon network): 0 | CIDEC expression (TNF-a regulon network): 0 | CLDN11 expression (TNF-a regulon network): 0 | CLEC4E expression (TNF-a regulon network): 0 | CLEC5A expression (TNF-a regulon network): 0 | COL1A2 expression (TNF-a regulon network): 0 | COTL1 expression (TNF-a regulon network): 0 | CPT1A expression (TNF-a regulon network): 1.211 | CPT2 expression (TNF-a regulon network): 0 | CRADD expression (TNF-a regulon network): 0 | CREM expression (TNF-a regulon network): 0 | CSF1R expression (TNF-a regulon network): 0 | CSF1 expression (TNF-a regulon network): 0 | CST7 expression (TNF-a regulon network): 0 | CTNNB1 expression (TNF-a regulon network): 0 | CTSB expression (TNF-a regulon network): 0 | CTSC expression (TNF-a regulon network): 0 | CTSF expression (TNF-a regulon network): 0 | CTSZ expression (TNF-a regulon network): 0 | CX3CR1 expression (TNF-a regulon network): 0 | CXCL2 expression (TNF-a regulon network): 0 | CXCL6 expression (TNF-a regulon network): 0 | CXCL9 expression (TNF-a regulon network): 0 | CXCL10 expression (TNF-a regulon network): 0 | CXCL11 expression (TNF-a regulon network): 0 | CXCL13 expression (TNF-a regulon network): 0 | CXCL16 expression (TNF-a regulon network): 0 | CXCR2 expression (TNF-a regulon network): 0 | CYBA expression (TNF-a regulon network): 0 | CYP1A1 expression (TNF-a regulon network): 0 | CYP2E1 expression (TNF-a regulon network): 0 | CYP7B1 expression (TNF-a regulon network): 0 | CYTH3 expression (TNF-a regulon network): 0 | CYTIP expression (TNF-a regulon network): 0 | DAG1 expression (TNF-a regulon network): 0 | DAXX expression (TNF-a regulon network): 0 | DBI expression (TNF-a regulon network): 0 | DBT expression (TNF-a regulon network): 0 | DCN expression (TNF-a regulon network): 0 | DDX58 expression (TNF-a regulon network): 0 | DENND4A expression (TNF-a regulon network): -1.412 | DHRS3 expression (TNF-a regulon network): 0 | DNMT1 expression (TNF-a regulon network): 0 | DPP4 expression (TNF-a regulon network): 0 | DUSP2 expression (TNF-a regulon network): 0 | DUSP5 expression (TNF-a regulon network): 0 | DUSP14 expression (TNF-a regulon network): 0 | EBI3 expression (TNF-a regulon network): 0 | ECH1 expression (TNF-a regulon network): 1.206 | EDN1 expression (TNF-a regulon network): 0 | EFNA1 expression (TNF-a regulon network): 0 | EFNB2 expression (TNF-a regulon network): 0 | EGFR expression (TNF-a regulon network): 1.258 | EGR2 expression (TNF-a regulon network): 0 | EIF2AK2 expression (TNF-a regulon network): 0 | EMP1 expression (TNF-a regulon network): 1.328 | ENG expression (TNF-a regulon network): 0 | ENPP3 expression (TNF-a regulon network): 0

— publication PMC4911353, “Pharmacologic Inhibition of Host Phosphodiesterase-4 Improves Isoniazid-Mediated Clearance of Mycobacterium tuberculosis” (Frontiers in Immunology, 2016)
